Experiments:
[1] = test system: P. aeruginosa H309 or E. cloacae 218R1; assay type: cell-based, Pseudomonas aeruginosa; Enterobacter cloacae; conditions: 10 μM NPN
Source text: The second assay determined membrane permeability by the ability of 1-N-phenylnaphthylamine(NPN), a small fluorescent probe, to insert itself into the membrane. Normally, very little NPN can penetrate the outer membrane, but in the presence of a membrane permeabilizer it can insert into the hydrophobic membrane resulting in an increase in fluorescence (FIGS. 7 and 8). This N-phenylnaphthylamine uptake assay was previously described by Loh, et al., Antimicrobial Agents and Chemo., 26:546, 1984. Cells were prepared exactly the same as for the lysozyme lysis assay. 1-N-phenylnaphthylamine(NPN) was dissolved in acetone at a concentration of 500 μM. NPN fluorescence was measured in a Perkin-Elmer 650-10S fluorescent spectrophotometer using excitation and emission wavelengths set to 350 nm and 420 nm respectively, with slit widths of 5 nm. The assay was standardized by adding 20 μl of NPN (final concentration of 10 μM) and 10 μl of 0.64 mg/ml of polymyxin B (final concentration of 6.4 μg/ml) into 1 ml of cells, and adjusting the resulting fluorescence to read 90% deflection (90 arbitrary units). Various compounds were tested by adding 10 μl of different concentrations to a cuvette containing 1 ml of cells and 10 μM NPN. Permeabilizing activity was designated as the total fluorescence minus the fluorescence due to NPN alone. Following the fluorescence measurement, the OD600 of the cells was taken to ensure no significant cell lysis had occurred.

E. coli strain DC2 = assay: Antibacterial activity on acid-urea gel overlaid with bacteria; assay type: cell-based, Escherichia coli; conditions: ≈10^5 E. coli strain DC2, overnight at 37° C.
Protocol: A sample of the partially purified CEME protein was electrophoresed on a 15% acid-urea gel, which separates proteins based on charge and mass (Panyim and Chalkey, Arch. Biochem. Biophys., 130:337, 1969). The pH of the buffer is acidic (≈pH 5.0) and the polarity is reversed such that proteins migrate to the cathode. Therefore, the small cationic peptides run relatively quickly through the gel and thus can be easily identified. Antibacterial activity was tested as previously described (Hultmark, Eur. J. Biochem., 106:7, 1980). The gel was incubated in Mueller Hinton broth+0.2M NaPO4 pH 7.4 for 1 hr. It was overlaid with 5 mls of the same media containing 0.6% agar and ≈10^5 E. coli strain DC2, and then again with 5 ml of the same media containing only 0.6% agar. […] Melittin is used as a positive control due to its antibacterial activity and similarity in size and PI values.

[2] = test system: P. aeruginosa H309 or E. cloacae 218R1; assay: Lysozyme lysis assay (outer membrane permeabilization); assay type: cell-based, Pseudomonas aeruginosa; Enterobacter cloacae; conditions: 50 μg/ml lysozyme, varying concentrations of compound
Protocol: Membrane permeabilization by polycationic compounds was measured in two different assays. The first assay measured membrane disruption by the ability of lysozyme to reach the periplasm and cause cell lysis. […] The uptake of lysozyme into whole cells due to membrane permeabilization by various compounds was previously described in Hancock, et al., Antimicrobial Agents and Chemo., 19:777, 1981. Overnight cultures of P. aeruginosa H309 or E. cloacae 218R1 grown in LB-S were diluted 1 in 50 in fresh medium and grown to an OD600 =0.5-0.6. The cells were harvested in a Silencer H-103N clinical centrifuge at 1800 g for 10 min, washed once with one volume of assay buffer (5 mM HEPES pH 7.2, 5 mM KCN), and resuspended in the same buffer to an OD600 of 0.5. Assays consisted of 600 μl of cells with 50 μg/ml of chicken egg white lysozyme and varying concentrations of cationic compounds. Cell lysis was measured as a decrease in the OD600 in a Perkin-Elmer dual beam spectrophotometer. Parallel experiments performed without lysozyme enabled the measurement of the lytic activity of the compounds themselves. To test whether or not permeability to lysozyme could be inhibited by divalent cations, various concentrations of MgCl2 were added to the assay after the addition of lysozyme and before the addition of the test compound.

S. aureus = assay: microbe, parasite or virus in culture; assay type: cell-based, Staphylococcus aureus; conditions: fragments of CEMA, strain not given
Protocol: (§1) The minimum inhibitory concentrations of (MIC) of CEME, CEMA and melittin were determined for a number of different bacteria (Table 2). Briefly, cells were grown overnight at 37° C. in LB-S (Luria broth without any salt supplement) and diluted one in 10,000 in the same medium to give concentrations of about 10^4 to 10^5 CFU/ml. The broth dilutions were set up in a 96 well microtiter plate by putting 200 μl of LB-S containing the initial concentration of antibiotic or compound in column 1 and 100 μl of the same medium in columns 2-12. The compounds were diluted by taking 100 μl of broth from column 1 and mixing it with column 2, resulting in a one in two dilution. This was continued to column 10. Finally, 10 μl of bacteria were pipetted into columns 1-11, and the plates incubated overnight at 37° C. The next day the plates were scored for growth in the wells, and the MIC determined.

Candida albicans = assay: MIC, same assay; assay type: cell-based; conditions: fragments of CEMA
E. coli = assay: microbe, parasite or virus in culture; assay type: cell-based, Escherichia coli; conditions: fragments of CEMA, strain not given
Protocol: as §1
(§2) Bacteria included the Bort strain of E. coli (Bortolussi, et al., Inf. Immun., 25:293, 1979) that was originally derived from a case of neonatal meningitis, and which is therefore considered a relevant pathogenic strain to study, and the 0111:B4 strain of E. coli (kindly provided by Dr. D. Morrison) which is a standard source of endotoxin. (Kelly, et al., Inf. Immun., 59:4491, 1991). In addition, P. aeruginosa PA01 strain H103, P. aeruginosa M2, P. aeruginosa K799, Eschericha coli UB 1005, Enterobacter cloacae 218S, Salmonella typhimurium MS7953s, Klebsiella pneumoniae ATCC 13883, Xanthomonas maltophilia ATCC 13637, and Acinetobacter calcoacetious 8193 were employed. LPS was obtained from E. coli Bort by the technique of Westphal and Jann, (Westphal, et al., Acad. Press, Inc. NY., 5:83) and from P. aeruginosa H103 by the method of Darveau and Hancock, (Darveau, et al., J. Bacteriol, 155:831, […]). E. coli 0111:B4 LPS was purchased from Sigma.

P. aeruginosa = assay: microbe, parasite or virus in culture; assay type: cell-based, Pseudomonas aeruginosa; conditions: fragments of CEMA, strain not given
Protocol: as §1, §2

Gram-negative bacteria = assay: MIC range over a broad range of Gram-negative bacteria; assay type: cell-based; conditions: broad range of Gram-negative bacteria (Table 9)
Protocol: CEME and CEMA were able to kill a broad range of Gram-negative bacteria with MICs ranging from 1-16 μg/ml (Table 9). These bacteria included many of the life-threatening gram-negative pathogens associated with septicemia and endotoxic shock.
as §2

[3] = Lethality of peptide alone in mice; assay type: in vivo

CC[C@H](C)[C@H](NC(=O)CN)C(=O)NCC(=O)N[C@@H](C)C(=O)N[C@H](C(=O)N[C@@H](CC(C)C)C(=O)N[C@@H](CCCCN)C(=O)N[C@H](C(=O)N[C@@H](CC(C)C)C(=O)N[C@H](C(=O)N[C@H](C(=O)NCC(=O)N[C@@H](CC(C)C)C(=O)N1CCC[C@H]1C(=O)N[C@@H](C)C(=O)N[C@@H](CC(C)C)C(=O)N[C@H](C(=O)N[C@@H](CO)C(=O)N[C@@H](Cc1c[nH]c2ccccc12)C(=O)N[C@H](C(=O)N[C@@H](CCCCN)C(=O)N[C@@H](CCCNC(=N)N)C(=O)N[C@@H](CCCCN)C(=O)N[C@@H](CCCNC(=N)N)C(=O)N[C@@H](CCC(N)=O)C(=O)N[C@@H](CCC(N)=O)C(N)=O)[C@@H](C)CC)[C@@H](C)CC)[C@@H](C)O)[C@@H](C)O)C(C)C)C(C)C [Melittin, melittin]
activity in opening up the membrane to NPN [1]: less active
antibacterial activity on overlaid gel (E. coli strain DC2): zones of clearing
permeabilization of outer membrane to lysozyme [2]: did not appear to be a good permeabilizer

CC[C@H](C)[C@H](NC(=O)CN)C(=O)NCC(=O)N[C@@H](C)C(=O)N[C@H](C(=O)N[C@@H](CC(C)C)C(=O)N[C@@H](CCCCN)C(=O)N[C@H](C(=O)N[C@@H](CC(C)C)C(=O)N[C@H](C(=O)N[C@H](C(=O)NCC(=O)N[C@@H](CC(C)C)C(=O)N1CCC[C@H]1C(=O)N[C@@H](C)C(=O)N[C@@H](CC(C)C)C(=O)N[C@@H](CCCCN)C(=O)N[C@@H](CC(C)C)C(=O)N[C@H](C(=O)N[C@@H](CCCCN)C(=O)O)[C@@H](C)O)[C@@H](C)O)[C@@H](C)O)C(C)C)C(C)C [MA]
MIC (S. aureus): greater than 64 ug/ml
MIC (Candida albicans): greater than 64 ug/ml
MIC (E. coli): greater than 64 ug/ml
MIC (P. aeruginosa): greater than 64 ug/ml

CC[C@H](C)[C@H](NC(=O)CNC(=O)[C@@H](NC(=O)[C@H](CCCCN)NC(=O)[C@H](CCCCN)NC(=O)[C@H](Cc1ccccc1)NC(=O)[C@H](CC(C)C)NC(=O)[C@H](CCCCN)NC(=O)[C@H](Cc1c[nH]c2ccccc12)NC(=O)[C@@H](N)CCCCN)[C@@H](C)CC)C(=O)NCC(=O)N[C@@H](C)C(=O)N[C@H](C(=O)N[C@@H](CC(C)C)C(=O)N[C@@H](CCCCN)C(=O)N[C@H](C(=O)N[C@@H](CC(C)C)C(=O)N[C@H](C(=O)N[C@H](C(=O)NCC(=O)N[C@@H](CC(C)C)C(=O)N1CCC[C@H]1C(=O)N[C@@H](C)C(=O)N[C@@H](CC(C)C)C(=O)N[C@H](C(=O)N[C@@H](CO)C(=O)O)[C@@H](C)CC)[C@@H](C)O)[C@@H](C)O)C(C)C)C(C)C [CEME]
MICs, range over strains (Gram-negative bacteria): 1 to 16 µg/mL
survival of mice given peptide alone ([3]; 200 μg (8.7 mg/kg) alone): survived
% Mortality ([3]; no LPS, peptide 200 ug): 0%
dead/total ([3]; no LPS, peptide 200 ug): 0/5

From US5688767A, “Treatment of endotoxin-associated disorders with cationic peptides” (priority 1996, dated 1997)
